Measured values: patent US8865182B2 (priority 2009, dated 2014)

system: HLA class II molecules (HLA-DRB1*0101, *0301, *0401, *0404, *0405, *0701, *0802, *0901, *1101, *1302, *1501, HLA-DRB4*0101, HLA-DRB5*0101); assay type: binding, human

| Sequence | # Alleles Bound |
| --- | --- |
| ISGVKLESIGIYQILSI [SEQ ID NO: 10] | 10 |
| PTTYISVGTSTLNQRL [SEQ ID NO: 4] | 9 |
| CPKYVKSNRLVLATGL [SEQ ID NO: 7] | 12 |
| ELLVLMENERTLDFHDS [SEQ ID NO: 9] | 8 |
| NRLVLATGLRNSPQR [SEQ ID NO: 8] | 10 |
| IYQILSIYSTVASSLA [SEQ ID NO: 11] | 13 |
| ILSIYSTVASSLALAI [SEQ ID NO: 12] | 12 |
| VVWLIKKNSTYPTIKR [SEQ ID NO: 3] | 9 |
| WTILKPNDAINFESN [SEQ ID NO: 6] | 8 |

system: HLA-A3 supertype (A*0301, A*1101, A*3101, A*3301, A*6801); assay type: binding, human

| Sequence | # Alleles Bound |
| --- | --- |
| ATTHSWIPKR (Influenza Virus) [SEQ ID NO: 240] | 2 |
| SVQPTFSVQR (Influenza Virus) [SEQ ID NO: 124] | 4 |
| KFFPSSSYR (Influenza Virus) [SEQ ID NO: 243] | 4 |
| SVQRNLPFER [SEQ ID NO: 126] | 4 |
| MVTQRTIGKK (Influenza Virus) [SEQ ID NO: 228] | 3 |
| VLRGFLILGK (Influenza Virus) [SEQ ID NO: 293] | 3 |
| KFLLMDALK (Influenza Virus) [SEQ ID NO: 179] | 2 |
| ALMEWLKTR (Influenza Virus) [SEQ ID NO: 73] | 5 |
| SINELSNLAK (Influenza Virus) [SEQ ID NO: 294] | 3 |
| NLYGFIIKGR (Influenza Virus) [SEQ ID NO: 184] | 4 |
| QTYDWTLNR (Influenza Virus) [SEQ ID NO: 225] | 4 |
| SICNTTGVEK (Influenza Virus) [SEQ ID NO: 176] | 4 |
| LLPFAAAPPK (Influenza Virus) [SEQ ID NO: 292] | 4 |
| KQIVERILK (Influenza Virus) [SEQ ID NO: 145] | 2 |
| MTKEFFENK (Influenza Virus) [SEQ ID NO: 186] | 5 |
| KIPKTKNMKK (Influenza Virus) [SEQ ID NO: 181] | 2 |
| RLFFKCIYR (Influenza Virus) [SEQ ID NO: 81] | 5 |
| ALTLNTMTK (Influenza Virus) [SEQ ID NO: 229] | 2 |
| GTFDTVQIIK (Influenza Virus) [SEQ ID NO: 291] | 3 |
| YQKCCTLFEK (Influenza Virus) [SEQ ID NO: 241] | 2 |
| KTNLYGFIIK [SEQ ID NO: 183] | 4 |
| VVFCGTSGTY (Influenza Virus) [SEQ ID NO: 96] | 2 |
| KLLLIVQALR (Influenza Virus) [SEQ ID NO: 188] | 3 |
| HIYYLEKANK (Influenza Virus) [SEQ ID NO: 178] | 4 |

| Sequence | # Alleles Bound |
| --- | --- |
| KFLPDLYDYK (Influenza Virus) [SEQ ID NO: 177] | 2 |
| ASCMGLIYNR [SEQ ID NO: 74] | 4 |
| FQLIPMISK (Influenza Virus) [SEQ ID NO: 182] | 2 |
| MITQFESLK [SEQ ID NO: 156] | 3 |
| ITGWAIFSK (Influenza Virus) [SEQ ID NO: 94] | 3 |
| TFEFTSFFYR (Influenza Virus) [SEQ ID NO: 236] | 4 |
| AQMALQLFIK (Influenza Virus) [SEQ ID NO: 237] | 2 |
| ATTHSWIPK (Influenza Virus) [SEQ ID NO: 239] | 4 |
| FSFGGFTFKR (Influenza Virus) [SEQ ID NO: 285] | 5 |
| TTVDHMAIIK (Influenza Virus) [SEQ ID NO: 275] | 2 |
| TIGECPKYVK (Influenza Virus) [SEQ ID NO: 66] | 1 |
| HQLLRHFQK (Influenza Virus) [SEQ ID NO: 288] | 3 |
| MVLSAFDER [SEQ ID NO: 118] | 4 |
| MQGSTLPRR (Influenza Virus) [SEQ ID NO: 120] | 2 |
| MVMELIRMIK (Influenza Virus) [SEQ ID NO: 122] | 4 |
| GTFGPVHFR (Influenza Virus) [SEQ ID NO: 282] | 5 |
| VQPTFSVQR (Influenza Virus) [SEQ ID NO: 125] | 3 |
| VLTGNLQTLK (Influenza Virus) [SEQ ID NO: 287] | 2 |
| TLARSICEK (Influenza Virus) [SEQ ID NO: 230] | 3 |
| LFFKCIYRR (Influenza Virus) [SEQ ID NO: 83] | 4 |
| LQLFIKDYR (Influenza Virus) [SEQ ID NO: 238] | 3 |
| SQDPTMLYNK (Influenza Virus) [SEQ ID NO: 290] | 2 |
| SIAPIMFSNK (Influenza Virus) [SEQ ID NO: 231] | 4 |
| ASYKIFKIEK (Influenza Virus) [SEQ ID NO: 95] | 2 |

| Sequence | # Alleles Bound |
| --- | --- |
| RIMEMIPER (Influenza Virus) [SEQ ID NO: 277] | 4 |
| RTFFGWKEPY (Influenza Virus) [SEQ ID NO: 180] | 3 |
| ALANTIEVFR (Influenza Virus) [SEQ ID NO: 226] | 3 |
| AVASGYDFER (Influenza Virus) [SEQ ID NO: 123] | 3 |
| SFSFGGFTFK (Influenza Virus) [SEQ ID NO: 283] | 5 |
| GTFEFTSFFY [SEQ ID NO: 235] | 4 |
| TVHYPKVYK (Influenza Virus) [SEQ ID NO: 280] | 5 |
| KLVGINMSKK (Influenza Virus) [SEQ ID NO: 234] | 2 |
| TTSTVHYPK (Influenza Virus) [SEQ ID NO: 278] | 5 |
| GTMVMELIR (Influenza Virus) [SEQ ID NO: 121] | 3 |
| ITGFAPFSK (Influenza Virus) [SEQ ID NO: 93] | 3 |
| RLFFKCIYRR [SEQ ID NO: 82] | 5 |
| SLMQGSTLPR (Influenza Virus) [SEQ ID NO: 119] | 4 |
| YQKCCNLFEK (Influenza Virus) [SEQ ID NO: 242] | 2 |
| STVHYPKVYK (Influenza Virus) [SEQ ID NO: 279] | 4 |
| FSFGGFTFK [SEQ ID NO: 284] | 5 |
| TVDHMAIIK (Influenza Virus) [SEQ ID NO: 276] | 2 |
| VVSIDRFLR (Influenza Virus) [SEQ ID NO: 289] | 4 |
| IQNSITIER (Influenza Virus) [SEQ ID NO: 117] | 2 |
| KLVGINMSK (Influenza Virus) [SEQ ID NO: 233] | 2 |
| SFGGFTFKR (Influenza Virus) [SEQ ID NO: 286] | 4 |
| TQFESLKLYR (Influenza Virus) [SEQ ID NO: 157] | 3 |
| MVTQRTIGK (Influenza Virus) [SEQ ID NO: 227] | 4 |
| KVYKTYFEK [SEQ ID NO: 281] | 3 |
